Assay results published in ChEMBL document CHEMBL1212880, “Discovery of (2,4-dihydroxy-5-isopropylphenyl)-[5-(4-methylpiperazin-1-ylmethyl)-1,3-dihydroisoindol-2-yl]methanone (AT13387), a novel inhibitor of the molecular chaperone Hsp90 by fragment based drug design” (J Med Chem, 2010).
In brackets after ≈: the same amount, converted by molar mass. Activity calls are given as the source filed them. No cut-off for these calls is given here.

What was measured:
[1] = Dissociation constant, pKa of the compound; format: physicochemical
[2] = Thermal stability of the compound at 80 degC after 24 hrs; format: physicochemical
[3] = Solubility of the compound in phosphate buffer at 15 mg at pH 6.5; format: physicochemical
[4] = Solubility of the compound in lactate buffer at 15 mg at pH 4.2; format: physicochemical
hERG (KCNH2) [5] = target: T1, hERG (KCNH2) (Homo sapiens, UniProt Q12809); assay: in vitro; settings: HEK293 cells expressing hERG
T1 sequence (Q12809 whole entry): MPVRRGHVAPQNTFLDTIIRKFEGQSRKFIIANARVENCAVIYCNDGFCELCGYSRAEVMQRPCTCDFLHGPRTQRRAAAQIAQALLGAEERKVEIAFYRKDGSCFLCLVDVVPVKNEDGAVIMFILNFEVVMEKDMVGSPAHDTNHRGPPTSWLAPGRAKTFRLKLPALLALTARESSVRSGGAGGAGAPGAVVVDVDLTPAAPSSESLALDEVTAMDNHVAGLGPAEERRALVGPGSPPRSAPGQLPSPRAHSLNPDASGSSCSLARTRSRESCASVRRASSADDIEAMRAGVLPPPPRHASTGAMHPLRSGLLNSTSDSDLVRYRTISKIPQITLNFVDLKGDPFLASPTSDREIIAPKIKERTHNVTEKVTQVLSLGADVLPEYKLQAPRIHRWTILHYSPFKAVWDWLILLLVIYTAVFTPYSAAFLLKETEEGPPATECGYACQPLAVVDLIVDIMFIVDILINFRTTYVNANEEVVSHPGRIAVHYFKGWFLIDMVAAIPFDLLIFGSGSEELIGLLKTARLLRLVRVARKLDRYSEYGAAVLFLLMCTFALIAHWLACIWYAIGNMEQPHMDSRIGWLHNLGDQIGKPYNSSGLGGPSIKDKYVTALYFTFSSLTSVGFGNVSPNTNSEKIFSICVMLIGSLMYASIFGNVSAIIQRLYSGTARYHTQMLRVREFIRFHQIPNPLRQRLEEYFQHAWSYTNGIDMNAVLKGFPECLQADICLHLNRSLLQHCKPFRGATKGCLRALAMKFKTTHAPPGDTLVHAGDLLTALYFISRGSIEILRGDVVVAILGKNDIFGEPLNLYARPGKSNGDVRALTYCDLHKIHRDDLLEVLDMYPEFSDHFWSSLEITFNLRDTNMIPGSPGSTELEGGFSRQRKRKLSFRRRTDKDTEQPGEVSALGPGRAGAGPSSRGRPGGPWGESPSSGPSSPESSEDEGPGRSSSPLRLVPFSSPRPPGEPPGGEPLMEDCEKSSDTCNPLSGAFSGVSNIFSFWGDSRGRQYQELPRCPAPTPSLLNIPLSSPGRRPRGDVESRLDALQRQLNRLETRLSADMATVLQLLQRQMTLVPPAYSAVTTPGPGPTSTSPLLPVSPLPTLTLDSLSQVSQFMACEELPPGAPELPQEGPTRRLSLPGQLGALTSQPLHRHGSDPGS
Description: Inhibition of human ERG expressed in HEK293 cells at 30 uM by patch clamp assay

[6] = Chemical stability of the compound after 144 hrs; format: physicochemical
[7] = Protein binding in human plasma after 6 hrs by equilibrium dialysis method; format: ADME, cell-free; settings: read-out: PPB (converted)
[8] = Chemical stability of the compound after 24 hrs; format: physicochemical
[9] = Chemical stability of the compound after 48 hrs; format: physicochemical
hERG (KCNH2) [10] = target: T1, hERG (KCNH2); assay: in vitro; settings: HEK293 cells expressing hERG; remark: listed apart in the source
Description: Inhibition of human ERG expressed in HEK293 cells at 3 uM by patch clamp assay

physchem = settings: buffer, pH 7.4
[11] = Solubility of the compound in acetate buffer at 15 mg at pH 5.5; format: physicochemical
[12] = Solubility of the compound in phosphate buffer at 15 mg at pH 5.5; format: physicochemical
[13] = Protein binding in mouse plasma after 6 hrs by equilibrium dialysis method; format: ADME, cell-free; settings: read-out: PPB (converted)
[14] = Volume of distribution at steady state in BALB/c mouse plasma at 2 to 10 mg/kg, iv; format: ADME, organism-based; set-up: dose 2-10 mg/kg, route intravenous; settings: read-out: Vdss
[15] = Half life in BALB/c mouse blood at 60 mg/kg, ip; format: ADME, organism-based; set-up: dose 60 mg/kg, route intraperitoneal
[16] = Clearance in BALB/c mouse plasma at 2 to 10 mg/kg, iv; format: ADME, organism-based; set-up: dose 2-10 mg/kg, route intravenous
CYP2C19 = CYP2C19 (Homo sapiens, UniProt P33261); assay: Inhibition of CYP2C19 at 10 uM; format: ADME
Chain of CYP2C19 (P33261 whole entry): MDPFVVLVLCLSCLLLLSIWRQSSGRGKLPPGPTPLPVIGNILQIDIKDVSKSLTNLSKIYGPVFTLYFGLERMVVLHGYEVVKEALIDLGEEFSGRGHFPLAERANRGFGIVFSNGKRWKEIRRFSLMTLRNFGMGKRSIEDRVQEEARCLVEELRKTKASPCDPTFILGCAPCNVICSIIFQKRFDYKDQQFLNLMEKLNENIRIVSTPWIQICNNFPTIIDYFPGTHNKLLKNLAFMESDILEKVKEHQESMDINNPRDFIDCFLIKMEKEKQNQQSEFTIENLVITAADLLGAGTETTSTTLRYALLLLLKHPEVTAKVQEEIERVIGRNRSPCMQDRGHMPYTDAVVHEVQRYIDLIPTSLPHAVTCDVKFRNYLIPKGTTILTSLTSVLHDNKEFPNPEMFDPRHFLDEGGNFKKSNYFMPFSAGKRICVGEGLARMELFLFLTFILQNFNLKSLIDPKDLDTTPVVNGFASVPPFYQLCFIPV

HCT-116 [17] = assay: Induction of apoptosis in human HCT116 cells assessed as reduction of Raf-1 level at 30 nM after 18 hrs by immunoblotting; format: functional, cell-based
CYP2C9 = CYP2C9 (Homo sapiens, UniProt P11712); assay: Inhibition of CYP2C9 at 10 uM; format: ADME
Chain of CYP2C9 (P11712 whole entry): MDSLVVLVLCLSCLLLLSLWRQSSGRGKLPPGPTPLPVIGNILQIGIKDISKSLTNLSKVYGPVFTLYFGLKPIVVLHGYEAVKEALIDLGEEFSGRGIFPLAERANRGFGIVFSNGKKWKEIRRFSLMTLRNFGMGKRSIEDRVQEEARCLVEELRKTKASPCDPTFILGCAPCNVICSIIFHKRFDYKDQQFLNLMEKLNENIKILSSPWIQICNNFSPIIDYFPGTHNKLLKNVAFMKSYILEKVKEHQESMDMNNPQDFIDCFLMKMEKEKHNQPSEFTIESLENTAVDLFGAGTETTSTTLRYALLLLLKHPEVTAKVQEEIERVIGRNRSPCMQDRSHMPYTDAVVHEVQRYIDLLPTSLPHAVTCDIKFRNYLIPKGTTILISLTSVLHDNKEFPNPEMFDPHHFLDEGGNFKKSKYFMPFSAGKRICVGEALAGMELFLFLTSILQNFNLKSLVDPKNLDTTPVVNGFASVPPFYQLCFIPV

HCT-116 [18] = assay: Antitumor activity against human HCT116 cells xenografted in BALB/c mouse assessed as inhibition of tumor growth at 60 mg/kg, ip qd for 3 days then no dose for 3 days for four dosing cycles measured on day 21 relative to control; format: functional; settings: HCT-116, ip, route intraperitoneal
[19] = Intrinsic clearance in mouse liver S9 fraction; format: ADME, subcellular; settings: s9
[20] = Half life in BALB/c mouse plasma at 2 to 10 mg/kg, iv; format: ADME, organism-based; set-up: dose 2-10 mg/kg, route intravenous
HCT-116 [21] = assay: Antitumor activity against human HCT116 cells xenografted in BALB/c mouse assessed as inhibition of tumor growth at 60 mg/kg, ip qd for 3 days then no dose for 3 days for four dosing cycles measured on day 21; format: functional; settings: HCT-116, ip, route intraperitoneal
[22] = Oral bioavailability in BALB/c mouse; format: ADME, organism-based; settings: in vivo
HCT-116 [23] = assay: Induction of apoptosis in human HCT116 cells assessed as upregulation of Hsp70 level at 10 nM after 18 hrs by immunoblotting; format: functional, cell-based
[24] = Half life in BALB/c mouse muscle at 60 mg/kg, ip; format: ADME, organism-based, Muscle tissue; set-up: dose 60 mg/kg, route intraperitoneal
[25] = Half life in human HCT116 cells xenografted BALB/c mouse tumor at 60 mg/kg, ip; format: ADME, organism-based, Neoplasm, HCT-116; set-up: dose 60 mg/kg, route intraperitoneal
HCT-116 [26] = assay: Induction of apoptosis in human HCT116 cells assessed as reduction of CDK4 level at 30 nM after 18 hrs by immunoblotting; format: functional, cell-based
CYP3A4 = CYP3A4 (Homo sapiens, UniProt P08684); assay: Inhibition of CYP3A4 at 10 uM; format: ADME
Chain of CYP3A4 (P08684 whole entry): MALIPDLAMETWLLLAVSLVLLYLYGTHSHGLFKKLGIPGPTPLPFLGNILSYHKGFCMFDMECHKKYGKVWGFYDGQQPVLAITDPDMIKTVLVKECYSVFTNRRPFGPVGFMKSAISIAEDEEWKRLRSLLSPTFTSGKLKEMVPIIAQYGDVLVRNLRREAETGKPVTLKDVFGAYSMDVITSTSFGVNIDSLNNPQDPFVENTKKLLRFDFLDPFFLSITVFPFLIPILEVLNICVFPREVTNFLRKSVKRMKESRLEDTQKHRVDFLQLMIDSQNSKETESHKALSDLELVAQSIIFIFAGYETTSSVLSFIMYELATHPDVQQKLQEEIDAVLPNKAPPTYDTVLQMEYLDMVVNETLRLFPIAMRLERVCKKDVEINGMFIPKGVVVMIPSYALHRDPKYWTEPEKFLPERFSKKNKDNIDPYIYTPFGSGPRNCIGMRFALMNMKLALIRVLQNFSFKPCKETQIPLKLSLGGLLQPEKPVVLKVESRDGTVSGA

HCT-116 [27] = assay: Cytotoxicity against human HCT116 cells at 100 uM by Alamar blue assay; format: functional
HCT-116 [28] = assay: Cytotoxicity against human HCT116 cells at 30 uM by Alamar blue assay; format: functional, cell-based

With `CC(C)c1cc(C(=O)N2Cc3ccc(C4(O)CCN(C)CC4)cc3C2)c(O)cc1O` the pKa [1] was 9.4, the Stability [2] was “Unstable” and the solubility [3] was 15 mg/mL (≈ 36.5 mM). The solubility [4] was > 30 mg/mL, the inhibition at 30 µM (hERG (KCNH2) [5]) was 34% and the Stability [6] was “Stable”. The fraction unbound at 6 h [7] was 0.36, the Stability [8] was “Stable” and the Stability [9] was “Stable”. For the same compound, the inhibition at 3 µM (hERG (KCNH2) [10]) was 15%, the logD (physchem) was 1.7 and the solubility [11] was > 30 mg/mL. The solubility [12] was > 30 mg/mL.
With `CC(C)c1cc(C(=O)N2Cc3ccc(NC4CCN(C)CC4)cc3C2)c(O)cc1O` the pKa [1] was 9.05, the solubility [3] was < 3 mg/mL and the solubility [4] was < 3 mg/mL. For the same compound, the inhibition at 30 µM (hERG (KCNH2) [5]) was 72%, the fraction unbound at 6 h [7] was 0.36 and the inhibition at 3 µM (hERG (KCNH2) [10]) was 25%. For the same compound, the logD (physchem) was 1.7, the solubility [11] was < 3 mg/mL and the solubility [12] was < 3 mg/mL.
For `CC(C)c1cc(C(=O)N2Cc3ccc(N4CCNCC4)cc3C2)c(O)cc1O`, the pKa [1] was 8.4, the inhibition at 30 µM (hERG (KCNH2) [5]) was 70% and the fraction unbound at 6 h [7] was 0.36. For the same compound, the inhibition at 3 µM (hERG (KCNH2) [10]) was 13% and the logD (physchem) was 1.6.
For `CC(C)c1cc(C(=O)N2Cc3ccc(OCCCN4CCOCC4)cc3C2)c(O)cc1O`, the pKa [1] was 6.9, the inhibition at 30 µM (hERG (KCNH2) [5]) was 95% and the inhibition at 3 µM (hERG (KCNH2) [10]) was 51%. It also gave a logD (physchem) of 3.3.
For `CC(C)c1cc(C(=O)N2Cc3ccc(C(=O)N4CCN(C)CC4)cc3C2)c(O)cc1O`, the pKa [1] was 6.8, the fraction unbound at 6 h [13] was 0.29 and the inhibition at 30 µM (hERG (KCNH2) [5]) was 49%. The fraction unbound at 6 h [7] was 0.36, the inhibition at 3 µM (hERG (KCNH2) [10]) was 21% and the logD (physchem) was 2.1.
For `CC(C)c1cc(C(=O)N2Cc3ccc(CN4CCN(C)CC4)cc3C2)c(O)cc1O` [ONALESPIB], the pKa [1] was 7.7, the Vd [14] was 11 L/kg and the Stability [2] was “Stable”. It also gave a solubility [3] of 15 mg/mL (≈ 36.6 mM), a half-life [15] of 4.7 h and a fraction unbound at 6 h [13] of 0.09. For the same compound, the solubility [4] was > 30 mg/mL, the clearance [16] was 113 mL/min/kg and the inhibition at 10 µM (CYP2C19) was < 50%. For the same compound, the Activity (HCT-116 [17]) was “Active”, the inhibition at 30 µM (hERG (KCNH2) [5]) was 42% and the inhibition at 10 µM (CYP2C9) was < 50%. The inhibition in vivo at 60 mg/kg (HCT-116 [18]) was 22%, the CL [19] was 0.046 mL/min/kg and the Stability [6] was “Stable”. The half-life [20] was 0.9 h, the inhibition in vivo at 60 mg/kg (HCT-116 [21]) was 78% and the fraction unbound at 6 h [7] was 0.36. For the same compound, the bioavailability [22] was 31%, the Activity (HCT-116 [23]) was “Active” and the half-life [24] was 3 h. The half-life [25] was 65 h, the Stability [8] was “Stable” and the Stability [9] was “Stable”. For the same compound, the inhibition at 3 µM (hERG (KCNH2) [10]) was 7%, the Activity (HCT-116 [26]) was “Active” and the logD (physchem) was 2.7. For the same compound, the solubility [11] was > 30 mg/mL and the solubility [12] was > 30 mg/mL.
With `CC(C)c1cc(C(=O)N2Cc3cccc(N4CCN(C)CC4)c3C2)c(O)cc1O` the inhibition at 10 µM (CYP3A4) was < 50%, the inhibition at 30 µM (hERG (KCNH2) [5]) was 87% and the inhibition at 3 µM (hERG (KCNH2) [10]) was 41%.
With `CC(C)c1cc(C(=O)N2Cc3cccc(OCCCN4CCOCC4)c3C2)c(O)cc1O` the pKa [1] was 7, the inhibition at 30 µM (hERG (KCNH2) [5]) was 83% and the inhibition at 3 µM (hERG (KCNH2) [10]) was 23%. The logD (physchem) was 3.55.
For `CC(C)c1cc(C(=O)N2Cc3ccccc3C2)c(O)c(F)c1O`, the Activity (HCT-116 [27]) was 60%, the CL [19] was 0.004 mL/min/kg and the Activity (HCT-116 [28]) was “inactive”.
For `CC(C)c1cc(C(=O)N2Cc3cccc(OCCN(C)C)c3C2)c(O)cc1O`, the inhibition at 10 µM (CYP3A4) was < 50%, the inhibition at 30 µM (hERG (KCNH2) [5]) was 93% and the inhibition at 3 µM (hERG (KCNH2) [10]) was 43%.
Compound `CC(C)c1cc(C(=O)N2Cc3ccc(OCCNC4CCCC4)cc3C2)c(O)cc1O` has an inhibition at 30 µM (hERG (KCNH2) [5]) of 97% and an inhibition at 3 µM (hERG (KCNH2) [10]) of 60%.
